Experiments:
Format in all cases: cell-based, mouse
[1] = system: β-galactosidase in CMV-LacZ C2C12 myotubes; assay: CMV-LacZ secondary screen in C2C12 myotubes (β-Gal stabilizing assay); conditions: C2C12 CMV-LacZ myotubes, fold relative to DMSO
In short: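 First, C2C12 myoblasts were transfected with a linearized CMV-LACZ vector and clonal lines selected by FDG β-gal assay. Then cells were exposed to compounds at 0.5, 1, 5, 10, 20 and 40 μM in 96-well format, two replicates each, and β-gal measured.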

[2] = system: α7 integrin (LacZ reporter in α7βgal+/− myoblasts); assay: Myoblast α7+/LacZ integrin FDG assay (Burkin assay in myoblasts, 96-well); conditions: α7+/LacZ myoblasts, 96-well
[3] = system: α7 integrin (LacZ reporter in α7+/LacZ myotubes); assay: Myotube α7 integrin FDG assay (Burkin assay in myotubes, 96-well); conditions: myotubes
[4] = system: β-galactosidase in CMV-LacZ C2C12 myoblasts; assay: CMV-LacZ secondary screen in C2C12 myoblasts (β-Gal stabilizing assay); conditions: CMV-LacZ C2C12 myoblasts
In short: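 β-Gal level was the read-out, measured in a clonal C2C12 line expressing LacZ from a CMV promoter. Dose-response curves used six concentrations, 0.5 μM up to 40 μM, with duplicate points.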

Compound | CMV-LACZ in Myotubes, signal relative to DMSO ([1]; 0.5 uM) | CMV-LACZ in Myotubes, signal relative to DMSO ([1]; 1 uM) | CMV-LACZ in Myotubes, signal relative to DMSO ([1]; 5 uM) | CMV-LACZ in Myotubes, signal relative to DMSO ([1]; 10 uM) | CMV-LACZ in Myotubes, signal relative to DMSO ([1]; 20 uM) | CMV-LACZ in Myotubes, signal relative to DMSO ([1]; 40 uM) | Burkin Assay in Myoblasts, signal relative to DMSO ([2]; 0.5 uM) | Burkin Assay in Myoblasts, signal relative to DMSO ([2]; 1 uM) | Burkin Assay in Myoblasts, signal relative to DMSO ([2]; 5 uM) | Burkin Assay in Myoblasts, signal relative to DMSO ([2]; 10 uM) | Burkin Assay in Myoblasts, signal relative to DMSO ([2]; 20 uM) | Burkin Assay in Myoblasts, signal relative to DMSO ([2]; 40 uM) | Burkin Assay in Myotubes, α7 integrin LacZ reporter signal relative to DMSO ([3]; 0.5 uM) | Burkin Assay in Myotubes, α7 integrin LacZ reporter signal relative to DMSO ([3]; 1 uM) | Burkin Assay in Myotubes, α7 integrin LacZ reporter signal relative to DMSO ([3]; 5 uM) | Burkin Assay in Myotubes, α7 integrin LacZ reporter signal relative to DMSO ([3]; 10 uM) | Burkin Assay in Myotubes, α7 integrin LacZ reporter signal relative to DMSO ([3]; 20 uM) | Burkin Assay in Myotubes, α7 integrin LacZ reporter signal relative to DMSO ([3]; 40 uM) | CMV-LACZ in Myoblasts (β-galactosidase activity relative to DMSO) ([4]; 0.5 uM) | CMV-LACZ in Myoblasts (β-galactosidase activity relative to DMSO) ([4]; 1 uM) | also measured
CC1(C)Cc2c(c(N3CCOCC3)nc3sc(C(=O)Nc4ccccc4)c(N)c23)CO1 [MLS001075922-01] | 1.0222 | 1.0533 | 1.2947 | 1.2173 | 1.0282 | 0.8388 | 1.2085 | 1.292 | 0.6039 | 0.2869 | 0.5678 | 0.6464 | 1.292 | 1.143 | 0.6556 | 0.629 | 1.067 | 0.8243 | 0.9434 | 1.3028 | CMV-LACZ in Myoblasts (β-galactosidase activity relative to DMSO) ([4]; 5 uM): 1.6332; CMV-LACZ in Myoblasts (β-galactosidase activity relative to DMSO) ([4]; 10 uM): 1.2361; CMV-LACZ in Myoblasts (β-galactosidase activity relative to DMSO) ([4]; 20 uM): 0.9881; CMV-LACZ in Myoblasts (β-galactosidase activity relative to DMSO) ([4]; 40 uM): 1.3037
CN(CC(=O)Nc1cccc(F)c1)C(=O)c1ccc(-c2ccc(Cl)cc2)o1 [MLS001078811-01] | 0.8486 | 0.9086 | 1.1571 | 0.9981 | 1.0510 | 0.6710 | 0.9376 | 0.9926 | 0.9583 | 0.891 | 1.681 | 0.7411 | 0.9163 | 0.9064 | 0.9816 | 0.8773 | 0.6307 | 0.4598 | 1.2397 | 1.2290 | CMV-LACZ in Myoblasts (β-galactosidase activity relative to DMSO) ([4]; 5 uM): 0.7927; CMV-LACZ in Myoblasts (β-galactosidase activity relative to DMSO) ([4]; 10 uM): 0.6873; CMV-LACZ in Myoblasts (β-galactosidase activity relative to DMSO) ([4]; 20 uM): 0.8393; CMV-LACZ in Myoblasts (β-galactosidase activity relative to DMSO) ([4]; 40 uM): 0.9014
COc1ccccc1C(=O)Nc1ccnn1C1CCN(C(=O)c2ccoc2)CC1 [MLS001083082-01] | 0.9615 | 1.0326 | 0.9984 | 0.9776 | 1.0282 | 1.1165 | 0.9036 | 0.9516 | 1.058 | 1.023 | 1.014 | 0.9468 | 1.035 | 0.9411 | 1.07 | 1.05 | 0.8987 | 0.937 | 0.8591 | 0.9234 | CMV-LACZ in Myoblasts (β-galactosidase activity relative to DMSO) ([4]; 5 uM): 1.0409; CMV-LACZ in Myoblasts (β-galactosidase activity relative to DMSO) ([4]; 10 uM): 1.1713; CMV-LACZ in Myoblasts (β-galactosidase activity relative to DMSO) ([4]; 20 uM): 0.9615; CMV-LACZ in Myoblasts (β-galactosidase activity relative to DMSO) ([4]; 40 uM): 0.8144
O=C1CCC(C(=O)N2CCSCC2)CN1Cc1ccc(Cl)cc1 (stereo not drawn) [MLS001090787-01] | 1.0009 | 0.9055 | 1.0126 | 1.1178 | 0.8990 | 0.9450 | 1.142 | 0.9734 | 1.263 | 1.46 | 1.265 | 1.222 | 1.054 | 1.168 | 1.083 | 1.195 | 1.209 | 1.5544 | 0.9196 | 0.9754 | CMV-LACZ in Myoblasts (β-galactosidase activity relative to DMSO) ([4]; 5 uM): 0.9700; CMV-LACZ in Myoblasts (β-galactosidase activity relative to DMSO) ([4]; 10 uM): 0.8594; CMV-LACZ in Myoblasts (β-galactosidase activity relative to DMSO) ([4]; 20 uM): 0.7533; CMV-LACZ in Myoblasts (β-galactosidase activity relative to DMSO) ([4]; 40 uM): 0.5907
COC(=O)c1cc(S(=O)(=O)NCC2CCN(Cc3ccc(Cl)cc3)CC2)cn1C [MLS001095033-01] | 1.2895 | 1.0867 | 1.0230 | 1.0031 | 1.0326 | 1.0358 | 1.281 | 1.186 | 0.9632 | 0.9614 | 1.125 | 1.0618 | 0.9959 | 0.9488 | 0.944 | 0.9298 | 0.8938 | 0.9158 | 0.9488 | 0.9179 | CMV-LACZ in Myoblasts (β-galactosidase activity relative to DMSO) ([4]; 5 uM): 0.9043; CMV-LACZ in Myoblasts (β-galactosidase activity relative to DMSO) ([4]; 10 uM): 1.0269; CMV-LACZ in Myoblasts (β-galactosidase activity relative to DMSO) ([4]; 20 uM): 0.9359; CMV-LACZ in Myoblasts (β-galactosidase activity relative to DMSO) ([4]; 40 uM): 0.9811
